# Laboratory results as given in PMC8566969, “Comparison of viral RNA–host protein interactomes across pathogenic RNA viruses informs rapid antiviral drug discovery for SARS-CoV-2” (Cell Research, 2021).
# “Also recorded” adds a separate entry of the source.
# Experiments:
# [1] = system: SARS-CoV-2 RNA interacting human proteins; design: ACT_VALUE, ACT_TYPE ID50: unit not given here; conditions: cited from earlier work
# [2] = in vitro; conditions: human
# [3] = system: ZIKV (MR766); experiment: Antiviral assay, ZIKV in Huh7 cells (4G2 immunostaining, high-content imaging); conditions: for IC50: Zika virus, Huh-7, 72 h, read-out: IC50, ZIKV; for SI (CC50/IC50), ZIKV: Huh7 cells
# [4] = in vitro; conditions: human; remark: listed apart in the source
# [5] = system: SARS-CoV-2 (IPBCAMS-YL01/2020); experiment: microbe, parasite or virus in culture; conditions: Severe acute respiratory syndrome coronavirus 2, A549-ACE2, 48 h, read-out: IC50 (half maximal inhibitory concentration), SARS-CoV-2 IPBCAMS-YL01/2020
# [6] = system: SARS-CoV-2 (IPBCAMS-YL01/2020); experiment: in vitro; conditions: human
# [7] = Cell viability assay (CellTiter-Glo), Huh7 cells; conditions: human
# [8] = system: TUBB cytoskeletal networks; experiment: Immunofluorescence of the TUBB-containing cytoskeleton in Caco-2 cells; format: cell-based, human; conditions: 0.5 µM, 6 h
# [9] = system: SARS-CoV-2 (IPBCAMS-YL01/2020); experiment: Antiviral assay, bona fide SARS-CoV-2 in Huh7.5.1 cells; format: cell-based; conditions: IPBCAMS-YL01/2020, human liver Huh7.5.1 cells
# [10] = biological target: TUBB (Homo sapiens, UniProt P07437); experiment: Cellular thermal shift assay (CETSA) in A549 cells, TUBB; format: cell-based
# [11] = system: EBOVΔVP30-GFP virus (strain Zaire Mayinga)
# [12] = system: EBOVΔVP30-GFP virus (strain Zaire Mayinga); experiment: microbe, parasite or virus in culture; conditions: Zaire ebolavirus, 72 h, read-out: IC50, EBOVΔVP30-GFP
# [13] = system: heat shock protein 90 alpha family class B member 1 (HSP90AB1); design: method as in earlier work; conditions: ref IUPHAR/BPS Guide to PHARMACOLOGY (geldanamycin pubmed_id 24984936), cited from earlier work; for IC50: read-out: original_affinity_median_nm (IC50)
# [14] = Solubility in water (statement in formulation method)
# [15] = biological target: T1, HSP90AB1 (Homo sapiens, UniProt P08238); format: cell-based
# T1 construct: HSP90AB1 protein was detected using a specific antibody after the A549 cells were treated with Cepharanthine; endogenous in cells; host or cells: A549
# [16] = biological target: T1, HSP90AB1; experiment: biochemical; format: binding
# [17] = system: SARS-CoV-2; design: method as in PMID 32707573; conditions: at 2.5 μM; cited from earlier work
# [18] = system: SARS-CoV-2 (IPBCAMS-YL01/2020); design: species or system hACE2 transgenic mice; conditions: mouse, in vivo
# [19] = system: SARS-CoV-2 virus entry; conditions: read-out: IC50, antiviral activity in virus entry inhibitor screen; cited from earlier work
# [20] = biological target: aldehyde dehydrogenase 2 family member (ALDH2); design: method as in IUPHAR/BPS Guide to PHARMACOLOGY, pubmed_id 18613661; conditions: In vitro inhibition of recombinant human mitochondrial aldehyde dehydrogenase, ref IUPHAR/BPS Guide to PHARMACOLOGY, pubmed_id 18613661, cited from earlier work
# [21] = system: isocitrate dehydrogenase (NADP(+)) 2 (IDH2); design: method as in IUPHAR/BPS Guide to PHARMACOLOGY, pubmed_id 32071674; conditions: ref IUPHAR/BPS Guide to PHARMACOLOGY, pubmed_id 32071674; cited from earlier work
# [22] = biological target: (GGCT); design: method as in IUPHAR/BPS Guide to PHARMACOLOGY, pubmed_id 17260973; conditions: assay_description: pKa= 9.71, ref IUPHAR/BPS Guide to PHARMACOLOGY, pubmed_id 17260973, cited from earlier work
# [23] = read-out: original_affinity_median_nm (Ki)
# T1 sequence (P08238 whole entry): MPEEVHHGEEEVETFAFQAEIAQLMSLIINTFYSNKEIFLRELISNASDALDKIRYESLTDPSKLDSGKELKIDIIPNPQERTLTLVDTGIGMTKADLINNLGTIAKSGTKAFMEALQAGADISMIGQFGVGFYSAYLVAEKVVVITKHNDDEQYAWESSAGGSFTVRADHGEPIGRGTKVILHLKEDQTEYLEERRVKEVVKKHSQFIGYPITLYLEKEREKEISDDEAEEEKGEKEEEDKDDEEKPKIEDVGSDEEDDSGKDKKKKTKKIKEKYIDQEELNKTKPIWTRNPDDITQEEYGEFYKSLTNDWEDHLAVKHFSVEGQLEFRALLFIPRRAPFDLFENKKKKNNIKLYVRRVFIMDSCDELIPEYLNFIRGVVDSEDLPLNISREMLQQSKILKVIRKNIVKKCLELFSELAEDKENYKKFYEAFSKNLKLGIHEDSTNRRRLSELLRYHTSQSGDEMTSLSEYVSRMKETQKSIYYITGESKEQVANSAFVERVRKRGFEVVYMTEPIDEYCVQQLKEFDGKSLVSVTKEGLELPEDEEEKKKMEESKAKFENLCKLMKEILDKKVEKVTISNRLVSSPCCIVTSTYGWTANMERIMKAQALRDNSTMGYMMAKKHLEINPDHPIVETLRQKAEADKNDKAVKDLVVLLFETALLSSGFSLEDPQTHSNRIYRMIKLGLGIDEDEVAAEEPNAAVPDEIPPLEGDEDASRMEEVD
# Chain of TUBB (P07437 whole entry): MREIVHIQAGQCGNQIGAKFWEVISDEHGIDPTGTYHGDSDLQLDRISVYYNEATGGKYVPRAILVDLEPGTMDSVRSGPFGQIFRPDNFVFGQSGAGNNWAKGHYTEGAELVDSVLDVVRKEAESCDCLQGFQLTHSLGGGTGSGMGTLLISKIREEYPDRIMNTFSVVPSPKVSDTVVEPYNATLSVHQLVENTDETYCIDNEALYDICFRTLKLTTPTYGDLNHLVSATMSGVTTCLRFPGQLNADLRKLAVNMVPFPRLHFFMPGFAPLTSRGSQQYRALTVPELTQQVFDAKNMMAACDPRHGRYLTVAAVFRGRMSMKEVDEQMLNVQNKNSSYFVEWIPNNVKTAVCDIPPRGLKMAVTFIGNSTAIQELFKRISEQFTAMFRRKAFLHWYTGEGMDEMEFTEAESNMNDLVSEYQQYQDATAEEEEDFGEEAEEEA
# Chain of TUBB (P68363 whole entry, further chain): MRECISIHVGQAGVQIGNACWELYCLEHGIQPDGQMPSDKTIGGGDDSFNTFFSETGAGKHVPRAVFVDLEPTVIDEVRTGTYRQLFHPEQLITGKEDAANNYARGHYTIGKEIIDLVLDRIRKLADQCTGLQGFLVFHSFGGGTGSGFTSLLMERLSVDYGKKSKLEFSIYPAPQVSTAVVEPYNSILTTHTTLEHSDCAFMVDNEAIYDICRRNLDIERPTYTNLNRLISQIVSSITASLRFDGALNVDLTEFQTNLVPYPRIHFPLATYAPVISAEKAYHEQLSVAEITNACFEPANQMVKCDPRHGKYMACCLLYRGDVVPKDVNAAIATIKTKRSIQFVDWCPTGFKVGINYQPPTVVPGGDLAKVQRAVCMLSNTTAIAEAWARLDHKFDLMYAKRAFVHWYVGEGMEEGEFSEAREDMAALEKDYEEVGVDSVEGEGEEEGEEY
structure (smiles),measurement,setting,value
COc1cc([C@@H]2c3cc4c(cc3[C@H](O)[C@H]3COC(=O)[C@H]23)OCO4)cc(OC)c1OC [podophyllotoxin],"ACT_VALUE, ACT_TYPE IC50",[1],6
CNC(=O)c1cc(Oc2ccc(NC(=O)Nc3ccc(Cl)c(C(F)(F)F)c3)cc2)ccn1 [Sorafenib],CC50,[2],12900 nM
CC(=O)O[C@@]12CO[C@@H]1C[C@H](O)[C@@]1(C)C(=O)[C@H](O)C3=C(C)[C@@H](OC(=O)[C@H](O)[C@@H](NC(=O)OC(C)(C)C)c4ccccc4)C[C@@](O)([C@@H](OC(=O)c4ccccc4)[C@H]21)C3(C)C [docetaxel],"ACT_VALUE, ACT_TYPE ID50",[1],6.699
"CC(C)(O)CNc1nc(Nc2ccnc(C(F)(F)F)c2)nc(-c2cccc(C(F)(F)F)n2)n1 [Enasidenib, 2-Methyl-1-(4-(6-(trifluoromethyl)pyridin-2-yl)-6-(2-(trifluoromethyl)pyridin-4-ylamino)-1,3,5-triazin-2-ylamino)propan-2-ol]",IC50,[3],13500 nM
same,CC50,[4],24900 nM
same,IC50,[5],28000 nM
same,selectivity ratio,[6],1.17
CN1CCN(CCCN2c3ccccc3Sc3ccc(C(F)(F)F)cc32)CC1 [Trifluoperazine],CC50 at 72 h,[7],7790 nM
same,Architecture of the TUBB cytoskeletal networks (immunofluorescence),[8],architecture of the TUBB cytoskeletal networks was disrupted
same,"SI (CC50/IC50), ZIKV",[3],8.11
same,IC50,[3],960 nM
same,Antiviral effect against SARS-CoV-2 in Huh7.5.1 cells (in words),[9],confirmed
same,IC50,[5],3460 nM
same,"CETSA, thermal stability of TUBB",[10],slightly affected the thermal stability of TUBB
same,"SI (CC50/IC50), EBOVΔVP30-GFP",[11],2.18
same,selectivity ratio,[6],10.7
same,IC50,[12],1790 nM
CC[C@]1(O)C[C@@H]2CN(CCc3c([nH]c4ccccc34)[C@@](C(=O)OC)(c3cc4c(cc3OC)N(C)[C@H]3[C@@](O)(C(=O)OC)[C@H](OC(C)=O)[C@]5(CC)C=CCN6CC[C@]43[C@@H]65)C2)C1 [vinblastine],"ACT_VALUE, ACT_TYPE IC50",[1],9
CCNC(=O)c1noc(-c2cc(C(C)C)c(O)cc2O)c1-c1ccc(CN2CCOCC2)cc1 [luminespib],affinity_median (pIC50),[13],8.7
same,IC50,[13],2 nM
COc1ccc2cc1Oc1ccc(cc1)C[C@H]1c3c(cc4c(c3Oc3cc5c(cc3OC)CCN(C)[C@@H]5C2)OCO4)CCN1C [Cepharanthine],CC50 at 72 h,[7],24000 nM
same,Solubility in water,[14],insoluble in water
same,"SI (CC50/IC50), ZIKV",[3],10.97
same,IC50,[3],2190 nM
same,Antiviral effect against SARS-CoV-2 in Huh7.5.1 cells (in words),[9],confirmed
same,"CETSA target engagement, HSP90AB1",[15],targeted HSP90AB1; also recorded: bound to HSP90AB1 in cells
same,IC50,[5],1670 nM
same,Kd,[16],3500 nM
same,inhibition ratio,[17],> 40%
same,"SI (CC50/IC50), EBOVΔVP30-GFP",[11],12.10
same,Viral loads in the lungs vs vehicle group at 3 dpi (qPCR),[18],no obvious differences
same,Viral loads in the lungs vs vehicle group at 5 dpi (qPCR),[18],significant reduction
same,Expression level of IL6 in lung vs vehicle group,[18]; 10 mg/kg,reduced
same,Expression level of TNF in lung vs vehicle group,[18]; 10 mg/kg,reduced
same,Lung injury and inflammation (H&E staining),[18]; 10 mg/kg,the extent of damage was much relieved in lung tissue
same,IC50,[19],1400 nM
same,selectivity ratio,[6],18.5
same,IC50,[12],420 nM
COC1=C2C[C@@H](C)C[C@H](OC)[C@H](O)[C@@H](C)/C=C(\C)[C@H](OC(N)=O)[C@@H](OC)/C=C\C=C(/C)C(=O)NC(=CC1=O)C2=O [geldanamycin],affinity_median (pIC50),[13],6.55
same,IC50,[13],282 nM
COc1cc(O)c2c(=O)c(-c3ccc(O)cc3)coc2c1 [prunetin],affinity_median (pKi),[20],6.35
same,Ki,[20]; [23],450 nM
C=C1C[C@@H]2CC[C@@]34C[C@H]5O[C@H]6[C@@H](O3)[C@H]3O[C@H](CC[C@@H]3O[C@H]6[C@H]5O4)CC(=O)C[C@@H]3[C@@H](OC)[C@@H](C[C@H](O)CN)O[C@H]3C[C@H]3O[C@@H](CC[C@@H]1O2)C[C@@H](C)C3=C [eribulin],"ACT_VALUE, ACT_TYPE IC50",[1],8.23
C[C@@H](Nc1nc(N[C@H](C)C(F)(F)F)nc(-c2cccc(Cl)n2)n1)C(F)(F)F [vorasidenib],assay_description (result in words),[21],Inhibits mutant IDH2.
COP(=O)(CCC(N)C(=O)O)Oc1cccc(CC(=O)O)c1 (stereo not drawn) [GGsTop],affinity_median (pKi),[22],3.77
same,Ki,[22]; [23],170000 nM
CC(=O)O[C@H]1C(=O)[C@@]2(C)[C@H]([C@H](OC(=O)c3ccccc3)[C@]3(O)C[C@H](OC(=O)[C@H](O)[C@@H](NC(=O)c4ccccc4)c4ccccc4)C(C)=C1C3(C)C)[C@]1(OC(C)=O)CO[C@@H]1C[C@@H]2O [paclitaxel],"ACT_VALUE, ACT_TYPE EC50",[1],8.05
COc1cc2c(cc1OC)[C@@H]1C(=O)c3ccc4c(c3O[C@@H]1CO2)C=CC(C)(C)O4 [Deguelin],CC50,[2],34700 nM
COC(=O)[C@H]1[C@@H](O)[C@@]2(O)c3c(OC)cc(O[C@@H]4O[C@@H]([C@H](O)CO)CO[C@H]4OC)cc3O[C@@]2(c2ccc(OC)cc2)[C@@H]1c1ccccc1 [Silvestrol],IC50,[3],10 nM
same,"SI (CC50/IC50), EBOVΔVP30-GFP",[11],0.50
same,IC50,[12],20 nM
